Source: patent publication US9868772B2 (INDIANA UNIVERSITY RESEARCH AND TECHNOLOGY CORPORATION, priority 2012, dated 2018)
pEC50: −log10 of the molar value. Numbered stars: 1 amine (or outer) side, 2 acyl side, 3 side chain; on linkers, the order of the positions; unused ones are H or OH. Square brackets hold non-standard residues; d marks the D form. Side chains are listed from the residue outwards. Peptide text beside a SMILES is read from it. * marks the point of attachment. γGlu = O=C(O)[C@H](CCC(=O)[*:2])N[*:1]; Palmitoyl = CCCCCCCCCCCCCCCC(=O)*

Assays:
Experiment in all cases: cAMP induction, firefly luciferase reporter assay in HEK293 cells co-transfected with receptor
Format in all cases: cell-based
GIP receptor = biological target: T1, GIP receptor (Homo sapiens, UniProt P48546)
T1 construct: expressed in transfected cells; host or cells: HEK293
T1 sequence (P48546 22-466): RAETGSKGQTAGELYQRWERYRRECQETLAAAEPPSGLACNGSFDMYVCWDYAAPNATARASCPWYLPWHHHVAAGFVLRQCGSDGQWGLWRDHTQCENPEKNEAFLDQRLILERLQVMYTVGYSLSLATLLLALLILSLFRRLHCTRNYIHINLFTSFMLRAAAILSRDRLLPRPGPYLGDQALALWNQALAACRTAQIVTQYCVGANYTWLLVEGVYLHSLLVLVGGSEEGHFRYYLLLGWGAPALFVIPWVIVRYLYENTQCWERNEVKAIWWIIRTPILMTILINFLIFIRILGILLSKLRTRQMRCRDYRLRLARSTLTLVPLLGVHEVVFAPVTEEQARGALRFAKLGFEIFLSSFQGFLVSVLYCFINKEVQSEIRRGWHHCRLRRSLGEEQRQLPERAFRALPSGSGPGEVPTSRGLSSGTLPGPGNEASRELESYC
Method: (§1) The ability of glucagon analogs to induce cAMP was measured in a firefly luciferase-based reporter assay. […] At the end of the incubation 100 microliters of LucLite luminescence substrate reagent (Perkin-Elmer, Wellesley, Mass.) were added to each well. […] Effective 50% concentrations were calculated by using Origin software (OriginLab, Northampton, Mass.

GLP-1 receptor = biological target: T2, GLP-1 receptor (Homo sapiens, UniProt P43220)
T2 construct: expressed in transfected cells; host or cells: HEK293
Method: as §1

glucagon receptor = biological target: T3, glucagon receptor (Homo sapiens, UniProt P47871)
T3 construct: expressed in transfected cells; host or cells: HEK293
Method: as §1

[1] = Table 3, analogs of SEQ ID NO: 12
[2] = Table 2, analogs of SEQ ID NO: 10

T2 sequence (P43220 24-463): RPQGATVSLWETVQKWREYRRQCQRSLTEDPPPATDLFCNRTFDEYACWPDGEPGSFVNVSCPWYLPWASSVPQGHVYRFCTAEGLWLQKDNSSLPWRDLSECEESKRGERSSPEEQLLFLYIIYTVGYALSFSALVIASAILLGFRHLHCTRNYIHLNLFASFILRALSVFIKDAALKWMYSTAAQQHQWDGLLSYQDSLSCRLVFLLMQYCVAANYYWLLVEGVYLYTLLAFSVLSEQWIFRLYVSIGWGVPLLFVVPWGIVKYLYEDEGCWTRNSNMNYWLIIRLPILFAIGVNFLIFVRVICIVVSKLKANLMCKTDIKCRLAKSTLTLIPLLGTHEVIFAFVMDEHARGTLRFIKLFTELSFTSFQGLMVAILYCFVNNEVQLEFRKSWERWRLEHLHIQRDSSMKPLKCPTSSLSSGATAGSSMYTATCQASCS
T3 sequence (P47871 26-477): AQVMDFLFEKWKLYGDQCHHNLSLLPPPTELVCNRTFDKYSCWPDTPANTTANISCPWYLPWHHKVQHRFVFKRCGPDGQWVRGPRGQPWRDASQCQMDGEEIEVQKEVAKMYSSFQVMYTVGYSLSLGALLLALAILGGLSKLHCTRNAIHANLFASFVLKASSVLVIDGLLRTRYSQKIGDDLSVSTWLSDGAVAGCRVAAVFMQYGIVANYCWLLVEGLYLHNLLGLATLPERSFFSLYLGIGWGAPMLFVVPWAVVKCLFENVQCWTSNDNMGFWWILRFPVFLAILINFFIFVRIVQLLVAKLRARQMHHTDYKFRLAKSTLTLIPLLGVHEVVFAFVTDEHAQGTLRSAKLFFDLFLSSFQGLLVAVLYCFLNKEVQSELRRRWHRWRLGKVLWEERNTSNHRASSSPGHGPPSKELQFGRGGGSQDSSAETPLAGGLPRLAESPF

Compound | pEC50 (GIP receptor; [1]) | pEC50 (GLP-1 receptor; [1]) | pEC50 (glucagon receptor; [1]) | pEC50 (GIP receptor; [2]) | pEC50 (GLP-1 receptor; [2]) | pEC50 (glucagon receptor; [2])
CCCCCCCCCCCCCCCC(=O)N[C@@H](CCC(=O)NCCCC[C@H](NC(=O)[C@H](CC(=O)O)NC(=O)[C@H](CO)NC(=O)[C@@H](NC(=O)[C@H](Cc1ccccc1)NC(=O)[C@@H](NC(=O)CNC(=O)[C@H](CCC(N)=O)NC(=O)[C@H](C)NC(=O)[C@@H](Cc1ccc(O)cc1)NC(C)=O)[C@@H](C)O)[C@@H](C)O)C(=O)N[C@@H](CO)C(=O)N[C@@H](CCCCN)C(=O)N[C@@H](Cc1ccc(O)cc1)C(=O)N[C@@H](CC(C)C)C(=O)N[C@@H](CC(=O)O)C(=O)N[C@@H](CCC(=O)O)C(=O)N[C@@H](CCCNC(=N)N)C(=O)N[C@@H](C)C(=O)N[C@@H](C)C(=O)N[C@@H](CCC(N)=O)C(=O)N[C@@H](CC(=O)O)C(=O)N[C@@H](Cc1ccccc1)C(=O)N[C@H](C(=O)N[C@@H](CCC(N)=O)C(=O)N[C@@H](Cc1c[nH]c2ccccc12)C(=O)N[C@@H](CC(C)C)C(=O)N[C@@H](CC(C)C)C(=O)N[C@@H](CCC(=O)O)C(=O)N[C@@H](C)C(=O)NCC(=O)N1CCC[C@H]1C(=O)N[C@@H](CO)C(=O)N[C@@H](CO)C(=O)NCC(=O)N[C@@H](C)C(=O)N1CCC[C@H]1C(=O)N1CCC[C@H]1C(=O)N1CCC[C@H]1C(=O)N[C@@H](CO)C(N)=O)C(C)C)C(=O)O [compound 146] (Ac-[dY]AQGTFTSDK([γGlu-Palmitoyl])SKYLDERAAQDFVQWLLEAGPSSGAPPPS-NH2) | 11.22 | 11.15 | 11.05 | – | – | –
CCCCCCCCCCCCCCCC(=O)N[C@@H](CCC(=O)NCCCC[C@H](NC(=O)[C@H](CC(=O)O)NC(=O)[C@H](CO)NC(=O)[C@@H](NC(=O)[C@H](Cc1ccccc1)NC(=O)[C@@H](NC(=O)CNC(=O)[C@H](CCC(=O)O)NC(=O)[C@H](C)NC(=O)[C@@H](Cc1c[nH]cn1)NC(C)=O)[C@@H](C)O)[C@@H](C)O)C(=O)N[C@@H](CO)C(=O)N[C@@H](CCCCN)C(=O)N[C@@H](Cc1ccc(O)cc1)C(=O)N[C@@H](CC(C)C)C(=O)N[C@@H](CC(=O)O)C(=O)N[C@@H](CCC(=O)O)C(=O)N[C@@H](CCCNC(=N)N)C(=O)N[C@@H](C)C(=O)N[C@@H](C)C(=O)N[C@@H](CCC(N)=O)C(=O)N[C@@H](CC(=O)O)C(=O)N[C@@H](Cc1ccccc1)C(=O)N[C@H](C(=O)N[C@@H](CCC(N)=O)C(=O)N[C@@H](Cc1c[nH]c2ccccc12)C(=O)N[C@@H](CC(C)C)C(=O)N[C@@H](CC(C)C)C(=O)N[C@@H](CCC(=O)O)C(=O)NCC(=O)NCC(=O)N1CCC[C@H]1C(=O)N[C@@H](CO)C(=O)N[C@@H](CO)C(=O)NCC(=O)N[C@@H](C)C(=O)N1CCC[C@H]1C(=O)N1CCC[C@H]1C(=O)N1CCC[C@H]1C(=O)N[C@@H](CO)C(N)=O)C(C)C)C(=O)O [compound 148] | – | – | – | 11.15 | 11.70 | 9.75
CCCCCCCCCCCCCCCC(=O)N[C@@H](CCC(=O)NCCCC[C@H](NC(=O)[C@H](CC(=O)O)NC(=O)[C@H](CO)NC(=O)[C@@H](NC(=O)[C@H](Cc1ccccc1)NC(=O)[C@@H](NC(=O)CNC(=O)[C@H](CCC(N)=O)NC(=O)[C@H](C)NC(=O)[C@@H](Cc1ccccc1)NC(C)=O)[C@@H](C)O)[C@@H](C)O)C(=O)N[C@@H](CO)C(=O)N[C@@H](CCCCN)C(=O)N[C@@H](Cc1ccc(O)cc1)C(=O)N[C@@H](CC(C)C)C(=O)N[C@@H](CC(=O)O)C(=O)N[C@@H](CCC(=O)O)C(=O)N[C@@H](CCCNC(=N)N)C(=O)N[C@@H](C)C(=O)N[C@@H](C)C(=O)N[C@@H](CCC(N)=O)C(=O)N[C@@H](CC(=O)O)C(=O)N[C@@H](Cc1ccccc1)C(=O)N[C@H](C(=O)N[C@@H](CCC(N)=O)C(=O)N[C@@H](Cc1c[nH]c2ccccc12)C(=O)N[C@@H](CC(C)C)C(=O)N[C@@H](CC(C)C)C(=O)N[C@@H](CCC(=O)O)C(=O)NCC(=O)NCC(=O)N1CCC[C@H]1C(=O)N[C@@H](CO)C(=O)N[C@@H](CO)C(=O)NCC(=O)N[C@@H](C)C(=O)N1CCC[C@H]1C(=O)N1CCC[C@H]1C(=O)N1CCC[C@H]1C(=O)N[C@@H](CO)C(N)=O)C(C)C)C(=O)O [compound 150] | – | – | – | 10.96 | 11.70 | 10.85
CCCCCCCCCCCCCCCC(=O)N[C@@H](CCC(=O)NCCCC[C@H](NC(=O)[C@H](CC(=O)O)NC(=O)[C@H](CO)NC(=O)[C@@H](NC(=O)[C@H](Cc1ccccc1)NC(=O)[C@@H](NC(=O)CNC(=O)[C@H](CCC(N)=O)NC(=O)[C@H](C)NC(=O)[C@@H](Cc1c[nH]cn1)NC(C)=O)[C@@H](C)O)[C@@H](C)O)C(=O)N[C@@H](CO)C(=O)N[C@@H](CCCCN)C(=O)N[C@@H](Cc1ccc(O)cc1)C(=O)N[C@@H](CC(C)C)C(=O)N[C@@H](CC(=O)O)C(=O)N[C@@H](CCC(=O)O)C(=O)N[C@@H](CCCNC(=N)N)C(=O)N[C@@H](C)C(=O)N[C@@H](C)C(=O)N[C@@H](CCC(N)=O)C(=O)N[C@@H](CC(=O)O)C(=O)N[C@@H](Cc1ccccc1)C(=O)N[C@H](C(=O)N[C@@H](CCC(N)=O)C(=O)N[C@@H](Cc1c[nH]c2ccccc12)C(=O)N[C@@H](CC(C)C)C(=O)N[C@@H](CC(C)C)C(=O)N[C@@H](CCC(=O)O)C(=O)N[C@@H](C)C(=O)NCC(=O)N1CCC[C@H]1C(=O)N[C@@H](CO)C(=O)N[C@@H](CO)C(=O)NCC(=O)N[C@@H](C)C(=O)N1CCC[C@H]1C(=O)N1CCC[C@H]1C(=O)N1CCC[C@H]1C(=O)N[C@@H](CO)C(N)=O)C(C)C)C(=O)O [compound 151] (Ac-[dH]AQGTFTSDK([γGlu-Palmitoyl])SKYLDERAAQDFVQWLLEAGPSSGAPPPS-NH2) | – | – | – | 10.85 | 11.70 | 11.52
CCCCCCCCCCCCCCCC(=O)N[C@@H](CCC(=O)NCCCC[C@H](NC(=O)[C@H](CC(=O)O)NC(=O)[C@H](CO)NC(=O)[C@@H](NC(=O)[C@H](Cc1ccccc1)NC(=O)[C@@H](NC(=O)CNC(=O)[C@H](CCC(N)=O)NC(=O)[C@H](C)NC(=O)[C@@H](Cc1ccc(O)cc1)NC(C)=O)[C@@H](C)O)[C@@H](C)O)C(=O)N[C@@H](CO)C(=O)N[C@@H](CCCCN)C(=O)N[C@@H](Cc1ccc(O)cc1)C(=O)N[C@@H](CC(C)C)C(=O)N[C@@H](CC(=O)O)C(=O)N[C@@H](CCC(=O)O)C(=O)N[C@@H](CCCNC(=N)N)C(=O)N[C@@H](C)C(=O)N[C@@H](C)C(=O)N[C@@H](CCC(N)=O)C(=O)N[C@@H](CC(=O)O)C(=O)N[C@@H](Cc1ccccc1)C(=O)N[C@H](C(=O)N[C@@H](CCC(N)=O)C(=O)N[C@@H](Cc1c[nH]c2ccccc12)C(=O)N[C@@H](CC(C)C)C(=O)N[C@@H](CC(C)C)C(=O)N[C@@H](CC(=O)O)C(=O)N[C@@H](CC(C)C)C(=O)NCC(=O)N1CCC[C@H]1C(=O)N[C@@H](CO)C(=O)N[C@@H](CO)C(=O)NCC(=O)N[C@@H](C)C(=O)N1CCC[C@H]1C(=O)N1CCC[C@H]1C(=O)N1CCC[C@H]1C(=O)N[C@@H](CO)C(N)=O)C(C)C)C(=O)O [compound 153] (Ac-[dY]AQGTFTSDK([γGlu-Palmitoyl])SKYLDERAAQDFVQWLLDLGPSSGAPPPS-NH2) | 10.74 | 10.77 | 10.68 | – | – | –
CCCCCCCCCCCCCCCC(=O)N[C@@H](CCC(=O)NCCCC[C@H](NC(=O)[C@H](CC(=O)O)NC(=O)[C@H](CO)NC(=O)[C@@H](NC(=O)[C@H](Cc1ccccc1)NC(=O)[C@@H](NC(=O)CNC(=O)[C@H](CCC(=O)O)NC(=O)[C@H](C)NC(=O)[C@@H](Cc1c[nH]cn1)NC(C)=O)[C@@H](C)O)[C@@H](C)O)C(=O)N[C@@H](CO)C(=O)N[C@@H](CCCCN)C(=O)N[C@@H](Cc1ccc(O)cc1)C(=O)N[C@@H](CC(C)C)C(=O)N[C@@H](CC(=O)O)C(=O)N[C@@H](CCC(=O)O)C(=O)N[C@@H](CCCNC(=N)N)C(=O)N[C@@H](C)C(=O)N[C@@H](C)C(=O)N[C@@H](CCC(N)=O)C(=O)N[C@@H](CC(=O)O)C(=O)N[C@@H](Cc1ccccc1)C(=O)N[C@H](C(=O)N[C@@H](CCC(N)=O)C(=O)N[C@@H](Cc1c[nH]c2ccccc12)C(=O)N[C@@H](CC(C)C)C(=O)N[C@@H](CC(C)C)C(=O)N[C@@H](CCC(=O)O)C(=O)N[C@@H](C)C(=O)NCC(=O)N1CCC[C@H]1C(=O)N[C@@H](CO)C(=O)N[C@@H](CO)C(=O)NCC(=O)N[C@@H](C)C(=O)N1CCC[C@H]1C(=O)N1CCC[C@H]1C(=O)N1CCC[C@H]1C(=O)N[C@@H](CO)C(N)=O)C(C)C)C(=O)O [compound 154] (Ac-[dH]AEGTFTSDK([γGlu-Palmitoyl])SKYLDERAAQDFVQWLLEAGPSSGAPPPS-NH2) | – | – | – | 10.62 | 11.40 | 9.07
